Measurements: patent US20150099270A1, “METHOD OF SCREENING PHARMACEUTICALS FOR DRUG INTERACTIONS AND NEPHROTOXICITY” (priority 2013, published 2015)

Legend:
[1] = human, in vivo
From the text: The purpose of this study is to quantify plasma and urinary acetyl-PAH as a measure of tubular function, in the presence of simultaneous measurement of GFR (iothalamate clearance) in healthy subjects. […] Subjects receiving drugs known to interfere with tubular secretion based on a current review of available literature, or a history of known allergic or adverse reactions to diagnostic iodine containing compounds including iothalamate, or PAH were excluded. Subjects with preexisting liver disease (including hepatitis), increased INR, liver transaminases (AST/ALT), bilirubin, serum albumin<3.0 g/dL. Iothalamate (Conray®, Mallinkrodt), and PAH (Merck) infusions were prepared on the morning of the study visit.
On the study day, each subject reported to the General Clinical Research Unit (GCRC) by 8:00 AM on study visit days. A 6-mL blood sample was be obtained for biochemistries (BUN, serum creatinine) and a spot urine sample was obtained for protein:creatinine ratio. Vital signs (heart rate, blood pressure, respiratory rate) were recorded half-hourly throughout each study visit. Subjects had intravenous catheters inserted into forearm veins of each arm for blood collection and intravenous infusion of iothalamate and PAH. […]
Throughout the study, all blood samples were collected in heparinized (green top) tubes, placed on ice immediately, centrifuged within 15 minutes (4,000 RPM), split into 2 plasma aliquots and frozen at −20° C. until analyzed. […] Urine was be placed on ice immediately after collection, and three 8 mL aliquots were frozen at −20° C. until analyzed. The total volume of urine was measured for each collection interval. A 5 mL aliquot of each IV infusate was collected and frozen at −20° C. until analyzed.
Iothalamate and PAH: Iothalamate and PAH concentrations in plasma and urine will be determined using an HPLC assay method developed in our laboratory. […] Separation is achieved using a C18 column, and effluent is monitored at a wavelength of 254 ηm. […]

HK-2 cells = assay: PAH metabolism experiment in HK-2 cells (acetyl-PAH formation quantified by HPLC); type: in vitro ADME, human
Description: Acetyl-PAH was quantified by HPLC using a Waters 2690 Separation Module. […] The runtime was 25 minutes for all samples.
HK2 cells were grown in 15 ml of Dulbecco's Modified Eagle Medium (DMEM)/F12 media with 10% Fetal Bovine Serum (FBS) and incubated at 37° C. with 5% CO2. After 5 days of culture, each 75 cm^2 flask of cells was transferred to 2 mls of the culture media and incubated with 200 μg/ml of PAH except for the negative control where no PAH was added. Cells were incubated for 4, 8 and 18 hours each (in triplicate) with or without PAH (control). Cells post incubation were lysed via sonication for 1 minute, then centrifuged at 14,000 RPM for 10 minutes. The supernatant was extracted and acetyl-PAH was quantified by HPLC. After 5 days of culture, the HK2 cell monolayers reached confluence (FIG. 1).
• 1. HK2 cells were grown in 15 ml of Dulbecco's Modified Eagle Medium (DMEM)/F12 media with 10% Fetal Bovine Serum (FBS) and incubated at 37° C. with 5% CO2. […]
Acetyl-PAH was quantified by HPLC using a Waters 2690 Separation Module. […] Quantification of acetyl-PAH formation was determined by calculating the area under the curve for each sample time-point, and determining the cumulative appearance over the entire incubation period (up to 18 hours).

[2] = dogs with azotemia, p=0.025; cited from earlier work

Rsec (total rate of tubular secretion) [1] [mL/min] | metabolism of PAH to acetyl-PAH (HK-2 cells; HK2 cells, 200 μg/ml PAH, 4, 8 and 18 hours) | mean (±SD) naPAH metabolite concentration (HK-2 cells; HK-2 cells incubated with PAH, HPLC) | Compound | renal extraction [2] | appearance of acetyl-PAH metabolite in urine and plasma [1]
382 ± 154 | time dependent fashion |  | Nc1ccc(C(=O)NCC(=O)O)cc1 [PAH, Para-aminohippuric acid] | 0.57 | 
 |  |  | CC[N+](CC)(CC)CC [TEA, tetraethylammonium] | 0.80 | 
581 ± 191 |  | increased over time | CC(=O)Nc1ccc(C(=O)NCC(=O)O)cc1 [acetyl-PAH, 2-[(4-acetamidobenzoyl)amino]acetic acid] |  | appears in high quantities in the urine and plasma
